Measured values as given in patent publication US11685732B2, “MYST family histone acetyltransferase inhibitors” (Epizyme, Inc., priority 2017, dated 2023).
pIC50: −log10 of the molar value.

Experiments:
KAT-7 = KAT-7 (Homo sapiens (Human), UniProt O95251); assay: KAT-7 biochemical inhibition assay (SAMDI mass spectrometry)
Method in brief: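 Read-out was SAMDI time-of-flight MS of formic acid-quenched reactions (0.5% final). Compound dilutions (2% DMSO final) were pre-incubated with 6 nM KAT-7 in 50 mM Tris pH 8.0 with 1 mM DTT, then given 1 μM peptide substrate and 2 μM acetyl-CoA for 120 min at 25 °C. IC50 values were derived.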

KAT-5 = KAT-5 (Homo sapiens (Human), UniProt Q92993); assay: KAT-5 biochemical inhibition assay (SAMDI mass spectrometry)
Method in brief: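 Acetylation of 1 μM peptide by 9 nM enzyme with 0.5 μM acetyl-CoA (final) was run 90 min at 25° C in Tris pH 8.0 buffer with DTT, after compound preincubation at 2% DMSO. Formic acid stopped the reaction, and product was quantified by SAMDI mass spectrometry to derive IC50.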

KAT-8 = KAT-8 (Homo sapiens (Human), UniProt Q9H7Z6); assay: KAT-8 biochemical inhibition assay (SAMDI mass spectrometry)
Method in brief: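 Acetylation of 1 μM peptide substrate with 5 μM acetyl-CoA by 12.5 nM enzyme, compound pre-incubated, 2% DMSO, Tris pH 8.0 buffer with DTT, 25 °C for 90 min. Quench with 0.5% formic acid; product read by SAMDI mass spectrometry to give IC50.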

KAT-6A = KAT-6A (Homo sapiens (Human), UniProt Q92794); assay: KAT-6A biochemical inhibition assay (SAMDI mass spectrometry)
Method in brief: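 IC50 values came from SAMDI time-of-flight mass spectrometry after formic acid quench (0.5% final). Acetylation ran 90 min at 25 °C with 1 μM acetyl coenzyme A and 1 μM peptide substrate, following compound pre-incubation with 12.5 nM KAT-6A in Tris buffer pH 8.0 containing DTT, 2% DMSO final.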

Sequence of KAT-7 (O95251 other isoform, or with tags, fused parts or gaps): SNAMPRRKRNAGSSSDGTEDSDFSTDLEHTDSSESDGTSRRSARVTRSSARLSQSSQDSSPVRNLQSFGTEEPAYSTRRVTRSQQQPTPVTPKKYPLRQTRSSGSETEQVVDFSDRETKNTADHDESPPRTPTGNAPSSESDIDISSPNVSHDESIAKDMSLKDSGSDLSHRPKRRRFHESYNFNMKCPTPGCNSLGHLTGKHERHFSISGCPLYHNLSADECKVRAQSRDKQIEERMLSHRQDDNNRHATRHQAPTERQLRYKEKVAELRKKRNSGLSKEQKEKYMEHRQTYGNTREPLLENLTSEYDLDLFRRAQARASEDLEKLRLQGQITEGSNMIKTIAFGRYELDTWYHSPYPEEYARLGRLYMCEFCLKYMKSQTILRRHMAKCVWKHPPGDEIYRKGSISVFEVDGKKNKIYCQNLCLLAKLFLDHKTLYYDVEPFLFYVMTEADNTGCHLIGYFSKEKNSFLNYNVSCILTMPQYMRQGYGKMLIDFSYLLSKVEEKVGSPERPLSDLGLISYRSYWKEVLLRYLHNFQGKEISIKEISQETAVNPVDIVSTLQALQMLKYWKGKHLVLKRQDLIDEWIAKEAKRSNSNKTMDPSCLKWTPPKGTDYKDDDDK
Sequence of KAT-6A (Q92794 other isoform, or with tags, fused parts or gaps): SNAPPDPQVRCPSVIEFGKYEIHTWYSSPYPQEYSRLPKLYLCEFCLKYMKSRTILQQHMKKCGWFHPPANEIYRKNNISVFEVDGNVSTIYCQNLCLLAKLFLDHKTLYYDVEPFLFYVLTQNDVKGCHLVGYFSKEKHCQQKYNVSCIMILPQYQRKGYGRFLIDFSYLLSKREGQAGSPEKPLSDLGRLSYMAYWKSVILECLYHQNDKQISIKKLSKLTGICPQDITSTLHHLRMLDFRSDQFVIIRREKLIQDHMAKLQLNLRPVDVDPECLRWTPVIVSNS
Sequence of KAT-5 (Q92993 other isoform, or with tags, fused parts or gaps): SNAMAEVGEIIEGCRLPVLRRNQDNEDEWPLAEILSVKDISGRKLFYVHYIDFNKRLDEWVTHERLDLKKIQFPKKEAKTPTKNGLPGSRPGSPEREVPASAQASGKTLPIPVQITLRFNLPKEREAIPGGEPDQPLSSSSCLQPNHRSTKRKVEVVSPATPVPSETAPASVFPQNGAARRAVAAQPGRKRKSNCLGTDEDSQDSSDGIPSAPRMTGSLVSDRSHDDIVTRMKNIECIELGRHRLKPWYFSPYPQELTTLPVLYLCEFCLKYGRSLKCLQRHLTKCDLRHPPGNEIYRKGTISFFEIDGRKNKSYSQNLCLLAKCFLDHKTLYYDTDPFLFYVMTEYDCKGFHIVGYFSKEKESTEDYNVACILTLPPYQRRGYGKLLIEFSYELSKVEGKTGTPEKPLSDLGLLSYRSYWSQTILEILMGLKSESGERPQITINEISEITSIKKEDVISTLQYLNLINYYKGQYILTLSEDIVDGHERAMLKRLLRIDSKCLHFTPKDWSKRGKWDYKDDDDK
Sequence of KAT-8 (Q9H7Z6 other isoform, or with tags, fused parts or gaps): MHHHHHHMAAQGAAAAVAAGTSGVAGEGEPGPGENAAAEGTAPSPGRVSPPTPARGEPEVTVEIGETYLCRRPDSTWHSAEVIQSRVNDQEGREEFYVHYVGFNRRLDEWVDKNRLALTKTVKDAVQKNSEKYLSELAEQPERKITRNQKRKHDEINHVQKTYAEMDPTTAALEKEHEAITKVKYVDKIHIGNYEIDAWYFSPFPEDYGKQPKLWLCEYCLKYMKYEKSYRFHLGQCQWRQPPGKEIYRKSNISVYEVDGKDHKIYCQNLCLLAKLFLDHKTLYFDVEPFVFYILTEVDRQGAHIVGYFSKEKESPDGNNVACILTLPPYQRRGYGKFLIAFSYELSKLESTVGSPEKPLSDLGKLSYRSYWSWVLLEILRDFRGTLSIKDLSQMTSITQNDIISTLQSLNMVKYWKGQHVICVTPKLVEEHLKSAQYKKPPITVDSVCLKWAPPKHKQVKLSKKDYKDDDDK

Row | SMILES | pIC50 (KAT-7) | pIC50 (KAT-5) | pIC50 (KAT-8) | pIC50 (KAT-6A)
1 | Cn1cnc(-c2cc(Cl)c(F)c(C(=O)NNS(=O)(=O)CC3CCN(S(C)(=O)=O)C3)c2)c1 (stereo not drawn) [Compound I-63] | > 5.00 | > 5.00 | 4.30 to 5.00 | > 5.00
2 | CCNC(=O)N1CCC(CS(=O)(=O)NNC(=O)c2cc(-c3cn(C)cn3)cc(Cl)c2F)C1 (stereo not drawn) [Compound I-64] | > 5.00 | > 5.00 | 4.30 to 5.00 | > 5.00
3 | Cn1cnc(-c2cc(Cl)c(F)c(C(=O)NNS(=O)(=O)c3cnn(C)c3)c2)c1 [Compound I-65] | > 5.00 | 4.00 to 4.30 | < 4.00 | 4.30 to 5.00
4 | CN(C)C(=O)N1CCC(CS(=O)(=O)NNC(=O)c2cc(-c3cn(C)cn3)cc(Cl)c2F)C1 (stereo not drawn) [Compound I-66] | > 5.00 | > 5.00 | 4.30 to 5.00 | > 5.00
5 | Cn1cc(-c2cc(Cl)c(F)c(C(=O)NNS(=O)(=O)CC3CCOCC3)c2)nn1 [Compound I-67] | 4.30 to 5.00 | 4.30 to 5.00 | < 4.00 | 4.30 to 5.00
6 | O=C(NNS(=O)(=O)CC1CCOCC1)c1cc(-c2cocn2)cc(Cl)c1F [Compound I-68] | 4.30 to 5.00 | > 5.00 | 4.30 to 5.00 | 4.30 to 5.00
7 | Cn1cnc(-c2cc(Cl)c(F)c(C(=O)NNS(=O)(=O)c3cn(C)nn3)c2)c1 [Compound I-69] | > 5.00 | 4.30 to 5.00 | 4.30 to 5.00 | 4.30 to 5.00
8 | Cc1nc(-c2cc(Cl)c(F)c(C(=O)NNS(=O)(=O)CC3CCOCC3)c2)cs1 [Compound I-70] | 4.30 to 5.00 | 4.30 to 5.00 | 4.30 to 5.00 | 4.30 to 5.00
9 | Cn1cnc(-c2cc(Cl)c(F)c(C(=O)NNS(=O)(=O)c3cnnn3C)c2)c1 [Compound I-71] | > 5.00 | 4.30 to 5.00 | 4.30 to 5.00 | 4.30 to 5.00
10 | Cn1cnc(-c2cc(Cl)c(F)c(C(=O)NNS(=O)(=O)c3cnn(C)n3)c2)c1 [Compound I-72] | > 5.00 | 4.30 to 5.00 | 4.30 to 5.00 | > 5.00
11 | CCC(=O)N1CCC(CS(=O)(=O)NNC(=O)c2cc(-c3cn(C)cn3)cc(Cl)c2F)C1 (stereo not drawn) [Compound I-73] | > 5.00 | > 5.00 | 4.30 to 5.00 | 4.30 to 5.00
12 | Cc1ncn(-c2cc(Cl)c(F)c(C(=O)NNS(=O)(=O)CC3CCOCC3)c2)n1 [Compound I-74] | 4.30 to 5.00 | 4.30 to 5.00 | 4.30 to 5.00 | 4.30 to 5.00
13 | CCS(=O)(=O)N1CCC(CS(=O)(=O)NNC(=O)c2cc(-c3cn(C)cn3)cc(Cl)c2F)C1 (stereo not drawn) [Compound I-75] | > 5.00 | > 5.00 | 4.30 to 5.00 | > 5.00
14 | Cc1ncn(-c2cc(Cl)c(F)c(C(=O)NNS(=O)(=O)C3CCOCC3)c2)n1 [Compound I-77] | 4.30 to 5.00 | 4.30 to 5.00 | 4.30 to 5.00 | 4.30 to 5.00
15 | CNC(=O)N1CCC(CS(=O)(=O)NNC(=O)c2cc(-c3cn(C)cn3)cc(Cl)c2F)C1 (stereo not drawn) [Compound I-78] | > 5.00 | > 5.00 | 4.30 to 5.00 | 4.30 to 5.00
16 | CN1CCC(CS(=O)(=O)NNC(=O)c2cc(-c3cn(C)cn3)cc(Cl)c2F)C1 (stereo not drawn) [Compound I-79] | > 5.00 | 4.30 to 5.00 | 4.30 to 5.00 | 4.30 to 5.00
17 | Cc1nc(-c2cc(Cl)c(F)c(C(=O)NNS(=O)(=O)CC3CCOCC3)c2)co1 [Compound I-80] | 4.30 to 5.00 | 4.30 to 5.00 | 4.30 to 5.00 | > 5.00
18 | Cc1ncc(-c2cc(Cl)c(F)c(C(=O)NNS(=O)(=O)CC3CCOCC3)c2)[nH]1 [Compound I-81] | 4.30 to 5.00 | > 5.00 | 4.30 to 5.00 | > 5.00
19 | CCS(=O)(=O)N1CCCC(CS(=O)(=O)NNC(=O)c2cc(-c3cn(C)cn3)cc(Cl)c2F)C1 (stereo not drawn) [Compound I-82] | > 5.00 | > 5.00 | 4.30 to 5.00 | > 5.00
20 | Cn1cnc(-c2cc(Cl)c(F)c(C(=O)NNS(=O)(=O)CC3CCN(C(=O)CCO)C3)c2)c1 (stereo not drawn) [Compound I-83] | > 5.00 | 4.30 to 5.00 | 4.30 to 5.00 | 4.30 to 5.00
21 | Cn1cnc(-c2cc(Cl)c(F)c(C(=O)NNS(=O)(=O)CC3CCN(S(=O)(=O)C4CC4)C3)c2)c1 (stereo not drawn) [Compound I-84] | > 5.00 | > 5.00 | 4.30 to 5.00 | > 5.00
